Results: article PMC6934184, “Selective DNA-PKcs inhibition extends the therapeutic index of localized radiotherapy and chemotherapy” (The Journal of Clinical Investigation, 2019)

Target: T1, JAK2 JH1 JH2 (Homo sapiens, UniProt O60674)
T1 construct: JAK2 JH1 JH2; purchased Thermo Fisher Scientific (Life Technologies) SelectScreen
Assay: SelectScreen Z'LYTE
Type: biochemical
How it was run: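 SelectScreen broad panel; activity (Z'LYTE, Adapta) plus binding formats. ATP: Km app for CSF1R Z'LYTE; 10 for CAMK1 Adapta. Readout = % per kinase.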

T1 sequence (O60674 532-1132 limits assumed): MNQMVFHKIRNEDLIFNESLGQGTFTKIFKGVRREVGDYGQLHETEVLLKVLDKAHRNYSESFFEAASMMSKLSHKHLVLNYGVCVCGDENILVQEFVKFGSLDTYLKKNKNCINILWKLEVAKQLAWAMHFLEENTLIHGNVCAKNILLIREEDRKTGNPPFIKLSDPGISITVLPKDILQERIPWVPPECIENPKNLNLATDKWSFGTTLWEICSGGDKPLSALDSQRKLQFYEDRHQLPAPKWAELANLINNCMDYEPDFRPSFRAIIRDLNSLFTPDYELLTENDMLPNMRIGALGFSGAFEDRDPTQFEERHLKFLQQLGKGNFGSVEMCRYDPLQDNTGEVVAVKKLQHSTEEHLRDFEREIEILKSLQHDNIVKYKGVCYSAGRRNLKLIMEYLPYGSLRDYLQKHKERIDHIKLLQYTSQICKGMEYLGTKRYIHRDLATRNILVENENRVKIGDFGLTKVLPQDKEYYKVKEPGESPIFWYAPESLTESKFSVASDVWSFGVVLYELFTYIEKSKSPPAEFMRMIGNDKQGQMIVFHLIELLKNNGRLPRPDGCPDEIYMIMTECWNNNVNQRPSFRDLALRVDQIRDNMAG

In the case of `CN(C(=O)CN1CCOCC1)c1ccc2sc3c(-c4cccc5c(=O)cc(N6CC7CCC(C6)O7)oc45)cccc3c2c1` [NU5455], the inhibition at 1 µM was -6.7%.
